Test results from the supplement of paper PMC10627819.

Columns and labels:
S. pneumoniae D39V [1] = assay: fitness (endpoint OD595 vs no drug) (fraction); higher = more growth
Method in brief: (§1)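 Fitness compares growth at the stationary-phase transition with the robust mean of no-drug control wells, as a ratio of optical densities. The ratio is capped at 1. Wells of 384-well plates held 30 µl, or 55 µl for S. pneumoniae, inoculated at OD595 0.01. Readings at OD595 every 30 min for 14 h at 37 °C were corrected against the first reading.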

B. subtilis 168 [2] = assay: as above
Method in brief: as §1

S. pneumoniae D39V [3] = assay: Bliss interaction score (quartile over a dose matrix) (fitness difference); higher = more antagonism (negative = synergy)
Method in brief: (§2)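 Fitness here means normalised growth, inferred for single drugs from the combination data. Growth was OD595 at entry into stationary phase, divided by the plate's robust no-drug mean and capped at 1. The Bliss score is observed minus expected fitness, with the expectation being the product, and its quartiles span technical, biological and donor/recipient replicates.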

S. aureus DSM 20231 = assay: as above
Method in brief: as §2

B. subtilis 168 [4] = assay: as above
Method in brief: as §2

S. aureus Newman = assay: as above
Method in brief: as §2
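Wherever Bliss interaction score (quartile over a dose matrix) is given: first quartile when negative (synergy) and third quartile when positive (antagonism).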
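Wherever fitness (endpoint OD595 vs no drug) is given: OD595 on entry to stationary phase over no-drug wells; at most 1.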

CN(C)C(=O)C(CCN1CCC(O)(c2ccc(Cl)cc2)CC1)(c1ccccc1)c1ccccc1 [Loperamide] + CC1=C\[C@@H](O)CC(=O)Cc2nc(co2)C(=O)N2CCC=C2C(=O)O[C@H](C(C)C)[C@H](C)/C=C/C(=O)NC\C=C\1 [Virginiamycin M1]
Settings | fitness
B. subtilis 168 [2], first compound 25 µg/mL, partner 0.0625 µg/mL | 0.809
B. subtilis 168 [2], first compound 25 µg/mL, partner 0.125 µg/mL | 0.745
B. subtilis 168 [2], first compound 25 µg/mL, partner 0.25 µg/mL | 0.755
B. subtilis 168 [2], first compound 50 µg/mL, partner 0.0625 µg/mL | 0.0261
B. subtilis 168 [2], first compound 50 µg/mL, partner 0.125 µg/mL | 0.0336
B. subtilis 168 [2], first compound 50 µg/mL, partner 0.25 µg/mL | 0.0356
B. subtilis 168 [2], first compound 100 µg/mL, partner 0.0625 µg/mL | 0.0228
B. subtilis 168 [2], first compound 100 µg/mL, partner 0.125 µg/mL | 0.0378
B. subtilis 168 [2], first compound 100 µg/mL, partner 0.25 µg/mL | 0.0328
S. pneumoniae D39V [1], first compound 17.14 µg/mL, partner 0.5 µg/mL | ≥ 1
S. pneumoniae D39V [1], first compound 17.14 µg/mL, partner 1 µg/mL | ≥ 1
S. pneumoniae D39V [1], first compound 17.14 µg/mL, partner 2 µg/mL | ≥ 1
S. pneumoniae D39V [1], first compound 20 µg/mL, partner 2 µg/mL | ≥ 1
S. pneumoniae D39V [1], first compound 34.28 µg/mL, partner 0.5 µg/mL | ≥ 1
S. pneumoniae D39V [1], first compound 34.28 µg/mL, partner 1 µg/mL | ≥ 1
S. pneumoniae D39V [1], first compound 34.28 µg/mL, partner 2 µg/mL | ≥ 1
S. pneumoniae D39V [1], first compound 40 µg/mL, partner 2 µg/mL | ≥ 1

fitness, S. pneumoniae D39V [1], one replicate
Settings | partner 0.15 µg/mL | partner 0.3 µg/mL | partner 0.5 µg/mL | partner 1 µg/mL | partner 2 µg/mL
first compound 20 µg/mL | ≥ 1 | 0.999 | ≥ 1 | ≥ 1 | –
first compound 40 µg/mL | ≥ 1 | ≥ 1 | ≥ 1 | ≥ 1 | –
first compound 68.57 µg/mL | – | – | ≥ 1 | ≥ 1 | ≥ 1
first compound 80 µg/mL | ≥ 1 | ≥ 1 | 0.348 | 0.0702 | –

Settings | Bliss interaction score
B. subtilis 168 [4] | -0.0999
S. aureus DSM 20231 | -0.211
S. aureus Newman | 0.0415
S. pneumoniae D39V [3] | 0.0883

CN(C)C(=O)C(CCN1CCC(O)(c2ccc(Cl)cc2)CC1)(c1ccccc1)c1ccccc1 [Loperamide] + CN(C)c1cc(NC(=O)CNC(C)(C)C)c(O)c2c1C[C@H]1C[C@H]3[C@H](N(C)C)C(O)=C(C(N)=O)C(=O)[C@@]3(O)C(O)=C1C2=O [Tigecycline]
fitness
Settings | first compound 17.14 µg/mL | first compound 20 µg/mL | first compound 25 µg/mL | first compound 34.28 µg/mL | first compound 40 µg/mL | first compound 50 µg/mL | first compound 80 µg/mL | first compound 100 µg/mL
B. subtilis 168 [2], partner 0.039 µg/mL | – | – | 0.894 | – | – | 0.132 | – | 0.0203
B. subtilis 168 [2], partner 0.078 µg/mL | – | – | 0.832 | – | – | 0.0334 | – | 0.0305
B. subtilis 168 [2], partner 0.156 µg/mL | – | – | 0.825 | – | – | 0.0355 | – | 0.0215
S. pneumoniae D39V [1], partner 0.65 µg/mL | 0.945 | 0.995 | – | 0.993 | 0.991 | – | 0.0427 | –
S. pneumoniae D39V [1], partner 1.3 µg/mL | ≥ 1 | 0.931 | – | 0.991 | 0.977 | – | 0.0494 | –
S. pneumoniae D39V [1], partner 2.6 µg/mL | ≥ 1 | 0.944 | – | 0.98 | 0.995 | – | 0.0611 | –

fitness, one replicate
Settings | partner 0.125 µg/mL | partner 0.25 µg/mL | partner 0.5 µg/mL | partner 0.65 µg/mL | partner 1.3 µg/mL | partner 2.6 µg/mL
B. subtilis 168 [2], first compound 25 µg/mL | 0.978 | 0.884 | 0.858 | – | – | –
B. subtilis 168 [2], first compound 50 µg/mL | 0.327 | 0.22 | 0.272 | – | – | –
B. subtilis 168 [2], first compound 100 µg/mL | 0.67 | 0.512 | 0.67 | – | – | –
S. pneumoniae D39V [1], first compound 68.57 µg/mL | – | – | – | ≥ 1 | ≥ 1 | ≥ 1

Settings | Bliss interaction score
B. subtilis 168 [4] | 0.115
S. aureus DSM 20231 | -0.115
S. aureus Newman | 0.0321
S. pneumoniae D39V [3] | 0.084

CCCCCCCCCC(=O)N[C@@H](Cc1c[nH]c2ccccc12)C(=O)N[C@H](CC(N)=O)C(=O)N[C@@H](CC(=O)O)C(=O)N[C@@H]1C(=O)NCC(=O)N[C@@H](CCCN)C(=O)N[C@@H](CC(=O)O)C(=O)N[C@H](C)C(=O)N[C@@H](CC(=O)O)C(=O)NCC(=O)N[C@H](CO)C(=O)N[C@@H]([C@H](C)CC(=O)O)C(=O)N[C@@H](CC(=O)c2ccccc2N)C(=O)O[C@@H]1C [Daptomycin] + CN(C)C(=O)C(CCN1CCC(O)(c2ccc(Cl)cc2)CC1)(c1ccccc1)c1ccccc1 [Loperamide]
fitness
Settings | partner 17.14 µg/mL | partner 20 µg/mL | partner 25 µg/mL | partner 34.28 µg/mL | partner 40 µg/mL | partner 80 µg/mL | partner 100 µg/mL
B. subtilis 168 [2], first compound 0.125 µg/mL | – | – | 0.862 | – | – | – | 0.0281
B. subtilis 168 [2], first compound 0.25 µg/mL | – | – | 0.802 | – | – | – | 0.0213
B. subtilis 168 [2], first compound 0.5 µg/mL | – | – | 0.669 | – | – | – | 0.0107
S. pneumoniae D39V [1], first compound 1 µg/mL | 0.888 | ≥ 1 | – | 0.877 | ≥ 1 | 0.225 | –
S. pneumoniae D39V [1], first compound 2 µg/mL | 0.951 | ≥ 1 | – | 0.919 | ≥ 1 | 0.153 | –
S. pneumoniae D39V [1], first compound 4 µg/mL | 0.917 | ≥ 1 | – | 0.918 | ≥ 1 | 0.196 | –

fitness, one replicate
Settings | first compound 1 µg/mL | first compound 2 µg/mL | first compound 4 µg/mL
B. subtilis 168 [2], partner 25 µg/mL | 0.191 | – | –
B. subtilis 168 [2], partner 50 µg/mL | 0.0409 | – | –
B. subtilis 168 [2], partner 100 µg/mL | 0.0167 | – | –
S. pneumoniae D39V [1], partner 68.57 µg/mL | 0.856 | 0.858 | 0.887

Settings | Bliss interaction score
B. subtilis 168 [4] | 0.136
S. aureus DSM 20231 | 0.133
S. aureus Newman | 0.0375
S. pneumoniae D39V [3] | 0.075

CCCCCCCCCC(=O)N[C@@H](Cc1c[nH]c2ccccc12)C(=O)N[C@H](CC(N)=O)C(=O)N[C@@H](CC(=O)O)C(=O)N[C@@H]1C(=O)NCC(=O)N[C@@H](CCCN)C(=O)N[C@@H](CC(=O)O)C(=O)N[C@H](C)C(=O)N[C@@H](CC(=O)O)C(=O)NCC(=O)N[C@H](CO)C(=O)N[C@@H]([C@H](C)CC(=O)O)C(=O)N[C@@H](CC(=O)c2ccccc2N)C(=O)O[C@@H]1C [Daptomycin] + C[C@H]1COc2c(N3CCN(C)CC3)c(F)cc3c(=O)c(C(=O)O)cn1c23 [Levofloxacin]
Settings | fitness
B. subtilis 168 [2], first compound 0.125 µg/mL, partner 0.0312 µg/mL | 0.0386
B. subtilis 168 [2], first compound 0.125 µg/mL, partner 0.0625 µg/mL | 0.0435
B. subtilis 168 [2], first compound 0.125 µg/mL, partner 0.125 µg/mL | 0.0465
B. subtilis 168 [2], first compound 0.25 µg/mL, partner 0.002 µg/mL | 0.949
B. subtilis 168 [2], first compound 0.25 µg/mL, partner 0.0039 µg/mL | 0.95
B. subtilis 168 [2], first compound 0.25 µg/mL, partner 0.0312 µg/mL | 0.043
B. subtilis 168 [2], first compound 0.25 µg/mL, partner 0.0625 µg/mL | 0.0534
B. subtilis 168 [2], first compound 0.25 µg/mL, partner 0.125 µg/mL | 0.073
B. subtilis 168 [2], first compound 0.5 µg/mL, partner 0.002 µg/mL | 0.915
B. subtilis 168 [2], first compound 0.5 µg/mL, partner 0.0039 µg/mL | 0.904
B. subtilis 168 [2], first compound 0.5 µg/mL, partner 0.0312 µg/mL | 0.0448
B. subtilis 168 [2], first compound 0.5 µg/mL, partner 0.0625 µg/mL | 0.071
B. subtilis 168 [2], first compound 0.5 µg/mL, partner 0.125 µg/mL | 0.0639
S. pneumoniae D39V [1], first compound 1 µg/mL, partner 0.1725 µg/mL | 0.909
S. pneumoniae D39V [1], first compound 1 µg/mL, partner 0.2 µg/mL | 0.867
S. pneumoniae D39V [1], first compound 1 µg/mL, partner 0.345 µg/mL | 0.794
S. pneumoniae D39V [1], first compound 1 µg/mL, partner 0.4 µg/mL | 0.678
S. pneumoniae D39V [1], first compound 1 µg/mL, partner 0.69 µg/mL | 0.531
S. pneumoniae D39V [1], first compound 1 µg/mL, partner 0.8 µg/mL | 0.132
S. pneumoniae D39V [1], first compound 2 µg/mL, partner 0.1725 µg/mL | 0.917
S. pneumoniae D39V [1], first compound 2 µg/mL, partner 0.2 µg/mL | 0.88
S. pneumoniae D39V [1], first compound 2 µg/mL, partner 0.345 µg/mL | 0.813
S. pneumoniae D39V [1], first compound 2 µg/mL, partner 0.4 µg/mL | 0.675
S. pneumoniae D39V [1], first compound 2 µg/mL, partner 0.69 µg/mL | 0.366
S. pneumoniae D39V [1], first compound 2 µg/mL, partner 0.8 µg/mL | 0.165
S. pneumoniae D39V [1], first compound 4 µg/mL, partner 0.1725 µg/mL | 0.949
S. pneumoniae D39V [1], first compound 4 µg/mL, partner 0.2 µg/mL | 0.818
S. pneumoniae D39V [1], first compound 4 µg/mL, partner 0.345 µg/mL | 0.86
S. pneumoniae D39V [1], first compound 4 µg/mL, partner 0.4 µg/mL | 0.551
S. pneumoniae D39V [1], first compound 4 µg/mL, partner 0.69 µg/mL | 0.615
S. pneumoniae D39V [1], first compound 4 µg/mL, partner 0.8 µg/mL | 0.133

fitness, B. subtilis 168 [2], one replicate
Settings | first compound 0.125 µg/mL | first compound 0.25 µg/mL | first compound 0.5 µg/mL | first compound 1 µg/mL
partner 0.001 µg/mL | 0.992 | ≥ 1 | 0.978 | –
partner 0.002 µg/mL | 0.949 | – | – | 0.753
partner 0.0039 µg/mL | 0.891 | – | – | 0.742
partner 0.0078 µg/mL | – | 0.829 | 0.882 | 0.723

Settings | Bliss interaction score
B. subtilis 168 [4] | 0.0436
S. aureus DSM 20231 | -0.0494
S. aureus Newman | -0.0469
S. pneumoniae D39V [3] | -0.18
